Data taken from PMC8822125, “RW-BP100-4D, a Promising Antimicrobial Candidate With Broad-Spectrum Bactericidal Activity” (Frontiers in Microbiology, 2022).
Converted amounts (≈) assume the structure as drawn. “And” between values parts separate entries of the source, which are not always exact repeats. Equal values may be shown once. Where a SMILES comes first, the peptide text is derived from it.

How the values were obtained:
[1] = tested on: Staphylococcus aureus ATCC29213; assay: MIC/MBC, broth microdilution; format: cell-based
Escherichia coli O157:H7 = assay: MIC/MBC, broth microdilution; format: cell-based; conditions: mean of three repeated experiments
Fusarium oxysporum LD21 = assay: MIC/MBC, broth microdilution (CLSI M38); format: cell-based
C. albicans ATCC10231 = conditions: 1 h, mean of three
Experimental: To evaluate the thermal and pH stability of RW-BP100-4D, 100 μL of the peptide (100 μg/mL, in PBS buffer) was incubated under different temperatures (40, 50, 60, 70, 80, 90, and 100°C, pH 7) or different pHs (2, 3, 4, 5, 6, 7, 8 and 9, 37°C) for 1 h ([Song et al., 2020]). After incubation, the pH of the peptide solutions was adjusted to 7.0 using NaOH or HCl. For protease and serum stability test, 100 μL of RW-BP100-4D (100 μg/mL) was incubated with proteinase K (1 mg/mL), trypsin (1 mg/mL), papain (1 mg/mL), or sterile calf serum at 37°C for 1 h, respectively ([Song et al., 2020]). After the treatments, the proteases and calf serum were inactivated by heating at 80°C for 30 min. The remnant activity of the treated RW-BP100-4D was evaluated by determining the MICs against E. coli ATCC25922, S. aureus ATCC29213, and C. albicans ATCC10231 using broth microdilution method. RW-BP100-4D without any treatment was used as the control and each test was conducted with three independent repeats. Moreover, degradation rate (%) was estimated as the percentage of degraded peptide calculated from the decrease of the high-performance liquid chromatography (HPLC) peak area of the native peptide. HPLC analysis was performed using the Agilent™ 1100 Series equipped with an Agilent analysis column (ZORBAX RX-C8, 2.1 mm × 150 mm, 5 μm) and an UV detector at 220 nm. Mobile phase was composed of A (H2O) and B (acetonitrile), which contained 0.065% trifluoroacetic (v/v) and 0.05% trifluoroacetic (v/v), respectively.

[2] = tested on: E. coli ATCC25922, S. aureus ATCC29213, and C. albicans ATCC10231; assay: Stress stability, fold change of MIC against the three reference strains; format: cell-based; conditions: proteinase K 1 mg/mL, 37°C, 1 h
sheep red blood cells = sheep red blood cells in PBS, 37°C, 1 h, OD576, relative to melittin, mean ± SD, three repeats;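 note: hemolysis expressed in % from supernatant absorbance, with PBS-treated cells as 0% baseline and melittin as 100%, peptide mixed 1:1 with an 8% v/v erythrocyte suspension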
[3] = tested on: Staphylococcus aureus ATCC33591; conditions: Staphylococcus aureus ATCC33591 (mecA); mean of three repeated experiments
Escherichia coli 47EC = Escherichia coli 47EC (tet(X4)); mean of three repeated experiments
[4] = tested on: S. aureus ATCC29213 biofilm formation; conditions: peptide 6.25 μg/mL, 24 h, 37°C, crystal violet OD590

SMILES: CC[C@H](C)[C@H](NC(=O)[C@H](CCCNC(=N)N)NC(=O)[C@H](CCCNC(=N)N)NC(=O)[C@@H](Cc1ccccc1)NC(=O)[C@H](CC(C)C)NC(=O)[C@H](CCCNC(=N)N)NC(=O)[C@@H](N)CCCNC(=N)N)C(=O)N[C@@H](CC(C)C)C(=O)N[C@@H](CCCNC(=N)N)C(=O)N[C@@H](Cc1c[nH]c2ccccc12)C(=O)N[C@@H](CC(C)C)C(N)=O [RW-BP100-4D] (HELM PEPTIDE1{R.R.L.[dF].R.R.I.L.R.W.L.[am]}$$$$V2.0)
- MIC Staphylococcus aureus ATCC29213 ([1]; Table 1, broth microdilution CLSI M100-S25, MH broth, 37°C, 18 h, three independent repeats): 3 µg/mL (≈ 1.89 µM)
- MIC of peptides ([1]; Table 2, Staphylococcus aureus ATCC29213, mean of three repeated experiments): 6 µg/mL and 3 µg/mL
- MBC of peptides (Escherichia coli O157:H7): 6 µg/mL
- MIC of peptides (Escherichia coli O157:H7): 3 µg/mL
- MIC of peptides (Fusarium oxysporum LD21; CLSI M38, mean of three repeated experiments): 12 µg/mL
- MBC of peptides (Fusarium oxysporum LD21; mean of three repeated experiments): 25 µg/mL
- MIC of RW-BP100-4D against C. albicans ATCC10231 after 40-80 ℃ (C. albicans ATCC10231; 100 μg/mL peptide in PBS, pH 7, 40-80 ℃, then broth microdilution): 12 µg/mL
- MIC of RW-BP100-4D against C. albicans ATCC10231 after 90 ℃ (C. albicans ATCC10231; 100 μg/mL peptide in PBS, pH 7, 90 ℃): 25 µg/mL
- MIC of RW-BP100-4D against C. albicans ATCC10231 after 100 ℃ (C. albicans ATCC10231; 100 μg/mL peptide in PBS, pH 7, 100 ℃): 50 µg/mL
- MIC of RW-BP100-4D against C. albicans ATCC10231 after papain (C. albicans ATCC10231; 100 μg/mL peptide with papain 1 mg/mL, 37°C, protease inactivated 80°C 30 min): >50 µg/mL
- MIC of RW-BP100-4D against C. albicans ATCC10231 after calf serum (C. albicans ATCC10231; 100 μg/mL peptide with sterile calf serum, 37°C, serum inactivated 80°C 30 min): >50 µg/mL
- MIC of RW-BP100-4D against C. albicans ATCC10231 after trypsin (C. albicans ATCC10231; 100 μg/mL peptide with trypsin 1 mg/mL, 37°C, protease inactivated 80°C 30 min): >50 µg/mL
- MIC of RW-BP100-4D against C. albicans ATCC10231 after pH 2-7 (C. albicans ATCC10231; 100 μg/mL peptide, pH 2-7, 37°C, then adjusted to pH 7.0): 12 µg/mL
- MIC of RW-BP100-4D against C. albicans ATCC10231 after pH 8-9 (C. albicans ATCC10231; 100 μg/mL peptide, pH 8-9, 37°C, then adjusted to pH 7.0): 25 µg/mL
- MICs after treatment with proteinase K, fold of the original level [2]: 4–8 fold
- Hemolytic rate, 50 μg/mL (sheep red blood cells; 50 μg/mL peptide): 0.11 ± 0.19%
- Hemolytic rate, 100 μg/mL (sheep red blood cells; 100 μg/mL peptide): 3.69 ± 0.01%
- Hemolytic rate, 150 μg/mL (sheep red blood cells; 150 μg/mL peptide): 18.75 ± 0.42%
- Hemolytic rate, 300 μg/mL (sheep red blood cells; 300 μg/mL peptide): 48.55 ± 2.53%
- MBC of peptides [3]: 6 µg/mL
- MIC of peptides [3]: 6 µg/mL and 3 µg/mL
- MBC of peptides (Escherichia coli 47EC): 12 µg/mL
- MIC of peptides (Escherichia coli 47EC): 3 µg/mL and 6 µg/mL
- Biofilm inhibited compared with the PBS control [4]: 82.3%
